Measurements reported in paper PMC5617480 (Oncotarget, 2017).

Test system: hTERT and c-myc
Experiment: Western blot and RT-PCR of hTERT and c-myc in BEL-7404 cells
Type: cell-based, human
Conditions: BEL-7404, 10 μM, 24 h, compared to complexes 4 and 5
Method: To further investigate the mechanism(s) how chiral platinum(II) complexes regulate telomerase activity, two genes (hTERT and c-myc) critically associated with telomerase activation were investigated. BEL-7404 cells were treated with chiral platinum(II) complexes 4–6 at 10 μM for 24 h, and then western blot and RT-PCR were performed to exam the expression of hTERT and c-myc at mRNA and protein levels. […] We further generated a GFP reporter system linked with c-myc or hTRET promotor which bears G4 DNA sequence. The reporter plasmids were transfected into BEL-7404 cells, and then the cells were treated with 10 μM chiral platinum(II) complexes for 24 h.
Apoptosis analysis c-myc antibody, or anti-β-actin primary antibody and the Apoptosis was detected by flow cytometric analysis corresponding secondary antibody were used to detect of annexin V staining. […] Then, cells were incubated with annexin V-FITC and PI for 1.0 h at Staining for SA-β-Gal activity was carried out room temperature in the dark and immediately analyzed according to Moore and Chen reports. […] The data are presented as biparametric After the long-term incubation with complexes 4–6, the dot plots showing PI red fluorescence vs annexin V-FITC growth medium was aspirated and the BEL-7404 cells green fluorescence. were fixed in 2% formaldehyde/0.2% glutaraldehyde for 15.0 min at room temperature. […]

Substance: cis-[PtCl2(S-(–)-FOA)] [complex 6]
- expression of hTERT and c-myc at mRNA and protein levels: significantly attenuate
